Reference: US8227463B2, “Amorphous body composed of heterocyclic compound, solid dispersion and pharmaceutical preparation each comprising the same, and process for production of the same” (Zenyaku Kogyo Kabushiki Kaisha, priority 2007, dated 2012)

Tests used:
[1] = Blood concentration measurement of the test compound in rats after oral administration of the preparations; assay type: in vivo, SD male rats
Description: 7-week old SD male rats were purchased from Charles River Laboratories Japan (Inc.), preliminarily kept for a week and then used for experiments. Fasting began 16 hours before drug administration, and each of the preparations obtained from Examples 1, 4 and 5, when used, was mixed with distilled water to make a 100 mg/5 ml/kg test compound suspension, which was administered orally. Blood was sequentially collected from the tail vein using heparin-treated glass blood collection tubes from 15 min. to 24 or 30 hours after the administration of these preparations, centrifuged (3,000 rpm, 10 min., 4° C.) to obtain plasma, and the blood concentration of the test compound was evaluated (FIG. 3).

[2] = Changes in the state of the amorphous body on storage, analysed by powder X-ray diffraction; assay type: physicochemical; conditions: ordinary temperature
Description: When a crystal of the test compound obtained by common procedures was analyzed using the powder X-ray diffraction method, several characteristic peaks at diffraction angles 2θ=5 to 14, and especially at 2θ=7 to 10, were observed (FIG. 1). In contrast, when the preparations obtained in Examples 1 and 2 were analyzed using the powder X-ray diffraction (XRD) method, the peaks at diffraction angles characteristic to a crystalline form were not observed, and it was clear that the test compound was in an amorphized state in these preparations (FIG. 2).
In order to investigate the changes in the state of an amorphous body of the test compound, a solid dispersion produced by the spray drying method with a 1:2.5 test compound to HPMC compounding ratio was stored under certain conditions, and changes in the state of the amorphous body of the test compound were analyzed by powder X-ray diffraction similar to Example 3.
The present tablets were filled into a glass jar, sealed and evaluated for the stability of the amorphous body after 6 months of storage at 40° C. (75% RH).

Row | Structure (SMILES) | Bioavailability in rats after grain refinement ([1]; grain refinement using a jet mill, a microfluidizer or an agitation mill) | Bioavailability / absorbability of amorphized test compound ([1]; compared to the crystallized form) | Stability of the amorphous state over time [2]
1 | FC(F)c1nc2ccccc2n1-c1nc(N2CCOCC2)nc(N2CCOCC2)n1 [test compound, 2-(2-difluoromethylbenzimidazol-1-yl)-4,6-dimorpholino-1,3,5-triazine] | an improvement in the bioavailability was not observed |  | 
2 | FC(F)c1nc2ccccc2n1-c1nc(N2CCOCC2)nc(N2CCOCC2)n1 [amorphous form of the test compound, 2-(2-difluoromethylbenzimidazol-1-yl)-4,6-dimorpholino-1,3,5-triazine] |  | extremely high absorbability | stable for a long period of time at ordinary temperature
